Patent US20220127297A1, “Novel Antibacterial 3"-Derivatives Of 4,6-Disubstituted 2,5-Dideoxystreptamine Aminoglycoside Antibiotics” (AGILeBiotics B.V., priority 2018, published 2022)
Read-outs that look alike come from different tables or passages of the source.

Key:
Assay in all cases: MIC determination at University Medical Center Groningen
Type in all cases: cell-based
[1] = system: clinical isolates of Acinetobacter baumannii (and ATCC17978)
Excerpt: (§1) 3.4.3 MIC Determination at University Medical Center Groningen (the Netherlands)
(§2) Tested reference compounds. Amikacin sulfate (Cat. No. 01693, Chem-Impex), Gentamicin sulfate (Cat. No. G4918, Sigma Aldrich).
(§3) Bacterial strains/isolates. Pseudomonas aeruginosa ATCC 27853, Escherichia coli ATCC 25922, Klebsiella pneumonia ATCC43816, Acinetobacter baumannii ATCC17978, 9 clinical isolates of Klebsiella pneumonia (origin: 4 unknown, 3 urine, 1 sputum, 1 catheter tip), 7 clinical isolates of Pseudomonas aeruginosa (origin: 3 unknown, 1 wound, 1 catheter, 1 faeces, bronco alveolar liquid=BAL), 8 clinical isolates of Escherichia coli (origin: 2 bile liquid, 2 rectum, 1 throat, 2 blood culture, 1 sputum), 4 clinical isolates of Acinetobacter baumannii (origin: 2 blood culture, 1 sputum, 1 bone).
(§4) Culture media and equipment. As indicated by EUCAST guidelines (European Committee on Antimicrobial Susceptibility Testing (EUCAST); Media preparation for EUCAST disk diffusion testing and for determination of MIC values by the broth microdilution method; Version 5.0, 2017), Mueller Hinton Broth, CM0405, (Oxoid) was used for the broth micro-dilutions; and Mueller Hinton Agar, CM0337, (Oxoid) was used for the plating on agar. The testing assays were conducted in 96-well plates, with U-bottom shape (Greiner Bio-one); All bacteria strains/isolates used were handled in a Laminar flow, Clean Air (Baker). A CO2 incubator commercialized by Sanyo was used. Finally, spectrophotometer measurements were conducted using a Synergy 2 Multi-detection Microplate Reader (BioTek).
(§5) Compound preparation. The compounds were weighed and dissolved into MilliQ water. These concentrated stock aliquots were then further diluted to reach the desired testing concentrations. Serial dilutions were made in order to achieve the ten desired final concentrations for the tested compounds, that ranged between 64-0.125 μg/mL. The concentrations were calculated in respect to the 150 μL of final volume used for each of the 96-wells. Of these dilutions, 100 μL was added in each testing well of a sterile 96-well plate. All compound dilutions were plated in triplicate, while duplicates were used for the two reference antibiotics.
(§6) Inoculum preparation. The clinical isolates were revived from Luria Bertani medium storage at −80° C. by plating them overnight on MH agar plates. The following day, a few colonies were picked and inoculated in small glass bottles containing 10 mL MH broth. Growth was subsequently allowed for approx. 3 hours, at 35° C. with 250 rpm shaking, until the isolates reached late logarithmic growth phase. At this point culture solutions were prepared with an OD600 (optical density measured at 600 nm; measured using Synergy 2 Multi-detection Microplate Reader; BioTek) of 0.05. […] 50 μL of culture suspension was added to each of the wells of the 96 well plate previously loaded with the desired antibiotic/medium solution, reaching a final total volume of 150 μL per well. As controls, blanks of the MH medium and of culture were added to the 96-well plate. Plates were incubated in a plate incubator in static conditions at 35° C. for 18 hours.
(§7) MIC determination. After the incubation time, the MIC value was determined by visual inspection of bacterial growth within 96-well plates. The first column in which there was no visible growth of bacteria was determined as the MIC90 value for the compound tested in that particular row. Additionally, spectrophotometer readouts at 600 nm were recorded for each well.
(§8) MIC90. The MIC90 of a compound was assigned at which no visible growth of bacteria was determined.

[2] = system: clinical isolates of Escherichia coli (and ATCC 25922)
Excerpt: as §1, §2, §3, §4, §5, §6, §7, §8

[3] = system: clinical isolates of Klebsiella pneumonia (and ATCC43816); conditions: Klebsiella pneumoniae
Excerpt: as §1, §2, §3, §4, §5, §6, §7, §8

[4] = system: clinical isolates of Pseudomonas aeruginosa (and ATCC 27853)
Excerpt: as §1, §2, §3, §4, §5, §6, §7, §8

With `N=C(N)NC1C(O)[C@@H](CO)OC(OC2C(F)[C@H](O[C@H]3OC(CN)[C@@H](O)CC3N)C(N)C[C@H]2NC(=O)[C@@H](O)CCN)[C@@H]1O` (stereo partly drawn) [ABX5006, Tobra-AHB-F-Gua] as the compound, how does the MIC90 ([1]; ATCC17978, A. baumannii ATCC17978 strain, broth micro-dilution (CLSI)) read?
The MIC90 was less than 0.125 µg/mL.

What about the MIC90 ([1]; ATCC17978, A. baumannii clinical isolate AB-2, Multidrug-resistant, origin Sputum) of the same compound?
The MIC90 was 0.5 to 1 µg/mL.

And the MIC90 ([1]; ATCC17978, A. baumannii clinical isolate AB-10, Multidrug-resistant, origin Blood culture)?
The MIC90 was 0.5 to 1 µg/mL.

What about the MIC90 ([1]; ATCC17978, A. baumannii clinical isolate AB-14, Multidrug-resistant, origin Blood culture) of the same compound?
Its MIC90 is 0.5 to 1 µg/mL.

What about the MIC90 ([1]; ATCC17978, A. baumannii clinical isolate AB-18, Multidrug-resistant, origin Bone) of the same compound?
Its MIC90 is 2 to 4 µg/mL.

And the MIC90 ([2]; ATCC25922, E. coli ATCC25922 strain, broth micro-dilution (CLSI))?
Its MIC90 is 0.5 µg/mL.

And the MIC90 ([2]; ATCC25922, E. coli clinical isolate EC-11, Multidrug-resistant, origin Throat)?
The MIC90 was 0.5 µg/mL.

What about the MIC90 ([2]; ATCC25922, E. coli clinical isolate EC-12, Multidrug-resistant, origin Rectum) of the same compound?
Its MIC90 is 2 µg/mL.

What about the MIC90 ([2]; ATCC25922, E. coli clinical isolate EC-22, Multidrug-resistant, origin Sputurn) of the same compound?
Its MIC90 is 4 µg/mL.

What about the MIC90 ([2]; ATCC25922, E. coli clinical isolate EC-25, Multidrug-resistant, origin Bile liquid) of the same compound?
The MIC90 was 4 µg/mL.

What about the MIC90 ([2]; ATCC25922, E. coli clinical isolate EC-26, Multidrug-resistant, origin Bile liquid) of the same compound?
The MIC90 was 4 µg/mL.

And the MIC90 ([2]; ATCC25922, E. coli clinical isolate EC-40, Multidrug-resistant, origin Blood culture)?
The MIC90 was 2 µg/mL.

What about the MIC90 ([2]; ATCC25922, E. coli clinical isolate EC-43, Multidrug-resistant, origin Rectum) of the same compound?
The MIC90 was 4 µg/mL.

And the MIC90 ([2]; ATCC25922, E. coli clinical isolate EC-46, suceptible, origin Blood culture)?
Its MIC90 is 2 µg/mL.

And the MIC90 ([3]; ATCC43816, K. pneumoniae ATCC43816 strain, broth micro-dilution (CLSI), read-out: MIC 90)?
Its MIC90 is 0.25 µg/mL.

And the MIC90 ([3]; ATCC43816, K. pneumoniae clinical isolate KP-107, KPC/Pandrug-resistant, origin Urine, read-out: MIC 90)?
Its MIC90 is 8 µg/mL.

What about the MIC90 ([3]; ATCC43816, K. pneumoniae clinical isolate KP-108, KPC/Pandrug-resistant, origin Urine, read-out: MIC 90) of the same compound?
Its MIC90 is 8 µg/mL.

What about the MIC90 ([3]; ATCC43816, K. pneumoniae clinical isolate KP-109, KPC/Pandrug-resistant, origin Catheter tip, read-out: MIC 90) of the same compound?
The MIC90 was 16 µg/mL.

What about the MIC90 ([3]; ATCC43816, K. pneumoniae clinical isolate KP-110, KPC/Pandrug-resistant, origin Sputum, read-out: MIC 90) of the same compound?
Its MIC90 is 8 µg/mL.

And the MIC90 ([3]; ATCC43816, K. pneumoniae clinical isolate KP-111, KPC/Pandrug-resistant, origin Urine, read-out: MIC 90)?
The MIC90 was 8 µg/mL.

What about the MIC90 ([3]; ATCC43816, K. pneumoniae clinical isolate KP-113, KPC/Pandrug-resistant, origin unkown) of the same compound?
The MIC90 was 4 µg/mL.

What about the MIC90 ([4]; ATCC27853, P. aeruginosa ATCC27853 strain, broth micro-dilution (CLSI), read-out: MIC 90) of the same compound?
Its MIC90 is 0.25 µg/mL.

And the MIC90 ([4]; ATCC27853, P. aeruginosa clinical isolate PA-179, Multidrug-resistant, origin Wound, read-out: MIC 90)?
Its MIC90 is 2 to 4 µg/mL.

And the MIC90 ([4]; ATCC27853, P. aeruginosa clinical isolate PA-195, Multidrug-resistant, origin Catheter, read-out: MIC 90)?
Its MIC90 is 0.5 to 1 µg/mL.

And the MIC90 ([4]; ATCC27853, P. aeruginosa clinical isolate PA-198, Multidrug-resistant, origin unkown)?
The MIC90 was 1 to 2 µg/mL.

And the MIC90 ([4]; ATCC27853, P. aeruginosa clinical isolate PA-202, Multidrug-resistant, origin Faeces, read-out: MIC 90)?
The MIC90 was 0.25 to 0.5 µg/mL.

What about the MIC90 ([4]; ATCC 27853 / BAL, P. aeruginosa clinical isolate P4-171, Pandrug-resistant, origin BAL, read-out: MIC 90) of the same compound?
The MIC90 was 8 µg/mL.
